Common to all, as to format: biochemical
Test [1] addresses T1, recombinant human MAO-A (monoamine oxidase-A) (Homo sapiens, UniProt P21397).
T1 construct: purchased Sigma-Aldrich
T1 sequence (P21397 1-527): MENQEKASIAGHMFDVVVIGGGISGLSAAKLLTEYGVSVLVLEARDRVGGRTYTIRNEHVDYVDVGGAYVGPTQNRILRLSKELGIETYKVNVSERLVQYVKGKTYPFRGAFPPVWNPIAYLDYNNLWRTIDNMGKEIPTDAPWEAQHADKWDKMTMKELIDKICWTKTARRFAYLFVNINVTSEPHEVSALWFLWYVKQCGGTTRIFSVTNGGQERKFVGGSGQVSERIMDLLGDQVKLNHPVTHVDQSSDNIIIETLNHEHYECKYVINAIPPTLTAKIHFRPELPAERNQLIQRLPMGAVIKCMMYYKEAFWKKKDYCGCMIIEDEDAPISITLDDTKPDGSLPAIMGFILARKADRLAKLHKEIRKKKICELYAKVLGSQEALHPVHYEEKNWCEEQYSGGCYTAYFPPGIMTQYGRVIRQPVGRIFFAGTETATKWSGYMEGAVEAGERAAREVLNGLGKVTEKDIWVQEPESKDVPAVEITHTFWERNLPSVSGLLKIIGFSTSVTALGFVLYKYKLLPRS
Put plainly: Activity on recombinant human MAO-A, Amplex Red method, 0.5 mM tyramine substrate. The conditions noted are these: read-out: Inhibitory Activity (IC50, nM) MAO-A. In a few lines: (§1)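 8-point, 1:3 dose-response, four-parameter logistic IC50 from reduction in fluorescence rate versus DMSO control. HRP/Amplex Red detection of H2O2 (ex 544, em 590 nm) after 30 min, 37 °C compound–enzyme preincubation in pH 7.4 phosphate buffer. MAO-A substrate: 0.5 mM tyramine; MAO-B: 1 mM benzylamine.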

The target in a further test is T2, recombinant human VAP-1 (Homo sapiens, UniProt Q16853).
T2 construct: purchased R&D systems
T2 sequence (Q16853 1-763): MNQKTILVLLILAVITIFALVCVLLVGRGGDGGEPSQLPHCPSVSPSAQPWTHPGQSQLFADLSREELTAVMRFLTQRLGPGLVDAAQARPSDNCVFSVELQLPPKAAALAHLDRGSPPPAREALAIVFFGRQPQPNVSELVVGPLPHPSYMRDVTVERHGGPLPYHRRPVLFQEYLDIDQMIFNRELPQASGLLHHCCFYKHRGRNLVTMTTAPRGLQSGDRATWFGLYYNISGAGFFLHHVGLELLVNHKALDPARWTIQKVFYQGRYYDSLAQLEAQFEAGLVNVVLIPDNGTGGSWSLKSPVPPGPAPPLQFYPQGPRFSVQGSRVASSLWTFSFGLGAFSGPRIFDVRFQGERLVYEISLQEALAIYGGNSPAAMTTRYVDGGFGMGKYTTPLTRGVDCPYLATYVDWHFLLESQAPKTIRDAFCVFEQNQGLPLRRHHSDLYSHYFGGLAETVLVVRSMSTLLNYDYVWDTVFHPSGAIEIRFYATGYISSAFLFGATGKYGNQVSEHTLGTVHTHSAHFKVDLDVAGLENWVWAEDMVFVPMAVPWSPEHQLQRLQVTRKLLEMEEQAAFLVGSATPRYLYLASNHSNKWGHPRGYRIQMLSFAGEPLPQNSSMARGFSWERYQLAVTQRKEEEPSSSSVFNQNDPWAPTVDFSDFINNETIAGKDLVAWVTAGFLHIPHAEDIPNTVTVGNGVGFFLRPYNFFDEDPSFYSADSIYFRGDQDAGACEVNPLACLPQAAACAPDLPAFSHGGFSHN
Put plainly: Activity on recombinant human VAP-1, Amplex Red HRP-coupled hydrogen peroxide assay, benzylamine substrate. The conditions noted are these: recombinant human VAP-1, benzylamine substrate, read-out: Inhibitory Activity (IC50, nM) human VAP-1. In short, it runs like this:
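Compounds were preincubated with purified enzyme in 50 mM sodium phosphate pH 7.4 at 37 °C for 30 min, then 200 uM Amplex Red, 1 mM benzylamine and 1 U/mL HRP were added. Resorufin fluorescence (ex 544/em 590 nm) was followed over 1-2 h; IC50 came from 4-parameter fits of signal-rate inhibition.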

For test [2], the target named is T3, recombinant human MAO-B (monoamine oxidase-B) (Homo sapiens, UniProt P27338).
T3 construct: purchased Sigma-Aldrich
T3 sequence (P27338 1-520): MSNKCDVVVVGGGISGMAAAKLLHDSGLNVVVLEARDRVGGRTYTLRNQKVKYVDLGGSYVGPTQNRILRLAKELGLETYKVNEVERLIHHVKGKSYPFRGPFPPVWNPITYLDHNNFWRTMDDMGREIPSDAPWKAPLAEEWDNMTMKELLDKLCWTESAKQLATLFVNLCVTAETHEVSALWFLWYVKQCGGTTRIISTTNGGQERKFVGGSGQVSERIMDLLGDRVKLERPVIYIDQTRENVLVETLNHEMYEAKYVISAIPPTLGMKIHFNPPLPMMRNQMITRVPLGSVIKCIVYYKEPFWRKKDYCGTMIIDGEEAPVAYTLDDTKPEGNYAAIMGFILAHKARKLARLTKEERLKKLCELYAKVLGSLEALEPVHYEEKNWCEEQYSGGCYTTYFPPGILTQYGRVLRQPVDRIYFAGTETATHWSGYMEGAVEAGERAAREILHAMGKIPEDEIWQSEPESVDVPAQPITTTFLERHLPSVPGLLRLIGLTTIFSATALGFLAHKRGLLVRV
Put plainly: Activity on recombinant human MAO-B, Amplex Red method, 1 mM benzylamine substrate. The conditions noted are these: read-out: Inhibitory Activity (IC50, nM) MAO-B. In a few lines:
as §1

The target in test [3] is T4, recombinant human DAO (diamine oxidase) (Homo sapiens, UniProt P19801).
T4 construct: purchased R&D systems
T4 sequence (P19801 20-751): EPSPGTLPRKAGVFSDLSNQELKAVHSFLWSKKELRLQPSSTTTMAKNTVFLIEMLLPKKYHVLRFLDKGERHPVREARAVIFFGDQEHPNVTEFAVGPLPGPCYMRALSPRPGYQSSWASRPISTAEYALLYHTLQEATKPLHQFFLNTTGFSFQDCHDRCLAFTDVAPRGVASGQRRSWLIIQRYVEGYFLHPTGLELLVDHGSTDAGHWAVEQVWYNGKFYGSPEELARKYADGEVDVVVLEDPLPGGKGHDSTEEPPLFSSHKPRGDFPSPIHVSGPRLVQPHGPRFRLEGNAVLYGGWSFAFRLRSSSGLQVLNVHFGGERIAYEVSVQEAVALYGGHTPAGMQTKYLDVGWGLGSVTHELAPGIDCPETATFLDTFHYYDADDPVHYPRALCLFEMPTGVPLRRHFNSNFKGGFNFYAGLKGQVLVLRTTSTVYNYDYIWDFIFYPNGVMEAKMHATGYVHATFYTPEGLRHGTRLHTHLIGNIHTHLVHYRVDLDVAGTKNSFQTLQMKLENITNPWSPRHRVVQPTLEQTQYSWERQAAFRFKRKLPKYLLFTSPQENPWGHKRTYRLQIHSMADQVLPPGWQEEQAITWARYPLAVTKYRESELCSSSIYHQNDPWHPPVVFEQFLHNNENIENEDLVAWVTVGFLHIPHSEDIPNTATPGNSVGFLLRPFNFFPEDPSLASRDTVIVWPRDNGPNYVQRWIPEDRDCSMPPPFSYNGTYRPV
The test can be described thus: Activity on recombinant human DAO, Amplex Red method, 1 mM putrescine substrate. The conditions noted are these: recombinant human DAO, read-out: Inhibitory Activity (IC50, nM) DAO. In short, it runs like this: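 Inhibition of recombinant human DAO (diamine oxidase, R&D systems) was assessed with the Amplex Red Hydrogen Peroxide Assay Kit. Hydrogen peroxide produced from 1 mM putrescine was detected through an HRP-coupled reaction that converts Amplex Red into fluorescent resorufin, read at 544 nm excitation and 590 nm emission. IC50 values came from four-parameter logistic fits in GraphPad Prism.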

Setting [4] is: 1 mM putrescine, * = between 10 and 100 nM, ** = between 300 and 1000 nM.

Experimental findings from patent US11492335B2, “Aryl or heteroaryl triazolone derivatives or salts thereof, or pharmaceutical compositions comprising the same” (YUHAN CORPORATION, priority 2018, dated 2022) are described below.

Counter-ions that a name gives are not always drawn. Like-named read-outs stand apart in the source and are kept apart here.

For `NC/C(=C\F)Cn1ncn(-c2cccc(/C=C/c3ccsc3)n2)c1=O` [Example 237, 2-[(2E)-2-(aminomethyl)-3-fluoroprop-2-en-1-yl]-4-{6-[(E)-2-(thiophen-3-yl)ethenyl]pyridin-2-yl}-2,4-dihydro-3H-1,2,4-triazol-3-one], the IC50 in test [1] (0.5 mM tyramine substrate) was 20000 nM; on recombinant human VAP-1, 2.4 nM; in test [2] (1 mM benzylamine substrate) it was less than 100 nM; in test [3] (1 mM putrescine substrate), 170 nM.
The corresponding values for `CC(=O)Nc1ccc(-c2ccnc(-n3cnn(C/C(=C/F)CN)c3=O)c2)cc1` [Example 166, N-[4-(2-{1-[(2E)-2-(aminomethyl)-3-fluoroprop-2-en-1-yl]-5-oxo-1,5-dihydro-4H-1,2,4-triazol-4-yl}pyridin-4-yl)phenyl]acetamide] are 20700 nM, 0.23 nM, 2420 nM and less than 30 nM.
Consider `NC/C(=C\F)Cn1ncn(-c2ccc(Br)nc2)c1=O` [Example 25, 2-[(2E)-2-(aminomethyl)-3-fluoroprop-2-en-1-yl]-4-(6-bromopyridin-3-yl)-2,4-dihydro-3H-1,2,4-triazol-3-one hydrochloride], for which the IC50 in test [1] (0.5 mM tyramine) is greater than 100000 nM; on recombinant human VAP-1 (30 min preincubation at 37° C.), 2.4 nM; in test [2] (1 mM benzylamine), 2300 nM; in test [3] (setting [4]), 25 nM.
The corresponding values for `Cc1cc(-n2cnn(C/C(=C/F)CN)c2=O)cnc1Br` [Example 27, 2-[(2E)-2-(aminomethyl)-3-fluoroprop-2-en-1-yl]-4-(6-bromo-5-methylpyridin-3-yl)-2,4-dihydro-3H-1,2,4-triazol-3-one hydrochloride] are greater than 100000 nM, 2.5 nM, 63 nM and 5.4 nM.
Consider `NC/C(=C/F)Cn1ncn(-c2ccc(F)cc2)c1=O` [Example 5, 2-[(2Z)-2-(aminomethyl)-3-fluoroprop-2-en-1-yl]-4-(4-fluorophenyl)-2,4-dihydro-3H-1,2,4-triazol-3-one], for which the IC50 in test [1] (0.5 mM tyramine) stood at 1600 nM; at recombinant human VAP-1 (30 min preincubation at 37° C.) it was 3.8 nM; in test [2] (1 mM benzylamine), 260 nM; in test [3] (setting [4]), 1100 nM.
The corresponding values for `CC(=O)c1ccc(-c2ccc(-n3cnn(C/C(=C\F)CN)c3=O)cc2)s1` [Example 42, 4-[4-(5-acetylthiophen-2-yl)phenyl]-2-[(2Z)-2-(aminomethyl)-3-fluoroprop-2-en-1-yl]-2,4-dihydro-3H-1,2,4-triazol-3-one hydrochloride] are 18400 nM, 0.47 nM, less than 0.01 nM and 1 nM.
For `NC/C(=C\F)Cn1ncn(-c2cccc(-c3ccc4cn[nH]c4c3)c2)c1=O` [Example 97, 2-[(2E)-2-(aminomethyl)-3-fluoroprop-2-en-1-yl]-4-[3-(1H-indazol-6-yl)phenyl]-2,4-dihydro-3H-1,2,4-triazol-3-one hydrochloride], in that order: 22500 nM, 0.68 nM, greater than 10000 nM and less than 30 nM.
For `CS(=O)(=O)c1ccc(-c2ccc(-c3cccc(-n4cnn(C/C(=C/F)CN)c4=O)c3)cc2)cc1` [Example 66, 2-[(2E)-2-(aminomethyl)-3-fluoroprop-2-en-1-yl]-4-[4″-(methylsulfonyl)-1,1′:4′,1″-terphenyl-3-yl]-2,4-dihydro-3H-1,2,4-triazol-3-one hydrochloride], in that order: greater than 100000 nM, 0.66 nM, greater than 10000 nM and 3.9 nM.
Regarding `CC(=O)Nc1ccc(-c2cccc(-n3cnn(C/C(=C/F)CN)c3=O)n2)cc1` [Example 175, N-[4-(6-{1-[(2E)-2-(aminomethyl)-3-fluoroprop-2-en-1-yl]-5-oxo-1,5-dihydro-4H-1,2,4-triazol-4-yl}pyridin-2-yl)phenyl]acetamide], the IC50 was 1470 nM in test [1] (0.5 mM tyramine substrate), 0.44 nM on recombinant human VAP-1, greater than 10000 nM in test [2] (1 mM benzylamine substrate) and less than 30 nM in test [3] (1 mM putrescine substrate).
Take `CC(C)n1cc(-c2cccc(-n3cnn(C/C(=C/F)CN)c3=O)c2)ccc1=O` [Example 90, 5-(3-{1-[(2E)-2-(aminomethyl)-3-fluoroprop-2-en-1-yl]-5-oxo-1,5-dihydro-4H-1,2,4-triazol-4-yl}phenyl)-1-(propan-2-yl)pyridin-2(1H)-one hydrochloride]: the IC50 in test [1] (0.5 mM tyramine) was greater than 100000 nM; on recombinant human VAP-1 (30 min preincubation at 37° C.), 1.4 nM; in test [2] (1 mM benzylamine), greater than 10000 nM; in test [3] (setting [4]), 19 nM.

The term IC50 denotes the point on the concentration scale where inhibition reaches its midpoint.
